{"source": "paper PMC4405350", "about": "“From Broad-Spectrum Biocides to Quorum Sensing Disruptors and Mussel Repellents: Antifouling Profile of Alkyl Triphenylphosphonium Salts” (PLoS ONE, 2015)", "type_in_all_cases": "cell-based", "key": {"[1]": {"test_system": "Gayralia oxysperma spores", "test": "Macroalgal spore germination inhibition", "conditions": "6 days, 19±1 °C", "method": "(§1) All the biological assays were run by triplicate. […] For the active products, serial dilutions were performed to calculate the half-maximal inhibitory concentrations (IC50) or the minimal inhibitory concentrations (MIC). Unless otherwise stated, the test concentrations were 100, 50, 25, 10, 5, 2.5, 1, 0.5 and 0.1 μM. Dose-response curves were adjusted with GraphPad Prism 5 software using a four-parameter non-linear regression model.\nTo evaluate the effect of the phosphonium salts on the germination of macroalgal spores, Gayralia oxysperma (Kützing) K.L.Vinogradova was selected as model organism. G. oxysperma (Ulotrichales, Chlorophyta) is a cosmopolitan member of the Ulvophyceae. Unlike Ulva species, which produce biflagellate male and female gametes, as well as quadriflagellate spores, G. oxysperma only produces biflagellate spores. This is an advantage as bioassays can be conducted straightforwardly without the need to distinguish between gamete-producing and zoospore-producing plants. […] Fresh fertile fragments were selected and placed in Petri dishes. Spores were then released in Von Stosch Solution (VSS) by the osmotic method. Bioassays were conducted in flat-bottom 96-well plates as described by Chambers and co-workers, with slight modifications. Each well was filled with 50 μl of the appropriate dilution of the products in VSS to which 50 μl of spore inoculum (ca. 2 x 10^5 spores ml^-1) were added. Plates were incubated at 19±1 °C for 6 days. After the incubation time, the bottom of each well was examined for the presence of germinated spores with an inverted microscope. A spore was considered as germinated when the germ tube was visible. The MIC was recorded as the lowest concentration inhibiting spore germination."}, "Cylindrotheca sp.": {"test_system": "Cylindrotheca sp.", "test": "Benthic diatom growth inhibition (chlorophyll-a)", "conditions": "growth, 5 days, chlorophyll-a; read-out: IC50 Cylindrotheca sp.", "method": "as §1\n(§2) Five strains of benthic diatoms, Nitszchia sp. […] The Nitzschia and Navicula strains were purchased from the Spanish Bank of Algae (Marine Biotechnology Center, University of Las Palmas de Gran Canaria). The other three strains were kindly provided by Dr. G. Courtois (University of Las Palmas de Gran Canaria). Diatoms were cultured at 19±1 °C in Erlenmeyer flaks (250 ml) containing 150 ml of Guillard’s F/2 medium, and subjected to a photoperiod of 18:6. Tests were run in 48-well plates. Inocula were prepared by adjusting diatom concentration to 2–4 × 10^6 cells ml^-1 using a Neubauer chamber. Test products were dissolved in F/2 medium (500 μl) to which diatom inocula (500 μl) were added. Thus, the final assay volume was 1 ml and the starting cell densities were ca. 1–2 x 10^6 diatoms ml^-1. Plates were incubated under the abovementioned conditions for 5 days and then chlorophyll-a (Chla) was quantified.\n(§3) In order to extract Chla, the content of each well was transferred to a microcentrifuge tube and centrifuged at 10,000 rpm for 10 min. The supernatants were discarded and 200 μl of DMSO were added to the pellets. The tubes were incubated at 65 °C for 2 h in total darkness and vortexed every 30 min. Then, the content of each tube was transferred to a 96-well plate and the amount of Chla was determined spectrophotometrically. Path length correction factor for the DMSO extracts was determined."}, "Nitzschia sp.": {"test_system": "Nitzschia sp.", "test": "Benthic diatom growth inhibition (chlorophyll-a)", "conditions": "growth, 5 days, chlorophyll-a; read-out: IC50 Nitzschia sp.", "method": "as §1, §2, §3"}, "[2]": {"test_system": "Phaeodactylum tricornutum", "test": "Benthic diatom growth inhibition (chlorophyll-a)", "conditions": "growth, 5 days, chlorophyll-a; read-out: IC50 P. tricornutum", "method": "as §1, §2, §3"}, "[3]": {"test_system": "Navicula cf. salinicola BEA 0055", "test": "Benthic diatom growth inhibition (chlorophyll-a)", "conditions": "growth, 5 days, chlorophyll-a; read-out: IC50 Navicula cf. salinicola", "method": "as §1, §2, §3"}, "Amphora sp.": {"test_system": "Amphora sp.", "test": "Benthic diatom growth inhibition (chlorophyll-a)", "conditions": "growth, 5 days, chlorophyll-a; read-out: IC50 Amphora sp.", "method": "as §1, §2, §3"}, "[4]": {"test_system": "Shewanella algae CECT 5021", "test": "Marine bacteria growth inhibition (broth microdilution, OD625)", "conditions": "growth inhibition, 24 h, 30 °C, three replicates; read-out: IC50 S. algae", "method": "as §1\n(§4) Growth inhibition was assessed in Marine Broth (Conda) according to CLSI guidelines for broth microdilution susceptibility testing. The incubation time was 24 h and the incubation temperature was 30 °C."}, "[5]": {"test_system": "Vibrio anguillarum CECT 4347", "test": "Marine bacteria growth inhibition (broth microdilution, OD625)", "conditions": "growth inhibition, 24 h, 30 °C, three replicates; read-out: IC50 V. anguillarum", "method": "as §1, §4"}, "[6]": {"test_system": "Vibrio alginolyticus CECT 521", "test": "Marine bacteria growth inhibition (broth microdilution, OD625)", "conditions": "growth inhibition, 24 h, 30 °C, three replicates; read-out: IC50 V. alginolyticus", "method": "as §1, §4"}, "[7]": {"test_system": "Cellulophaga lytica CECT 5014", "test": "Marine bacteria growth inhibition (broth microdilution, OD625)", "conditions": "growth inhibition, 24 h, 30 °C, three replicates; read-out: IC50 C. lytica", "method": "as §1, §4"}, "[8]": {"test_system": "Pseudoalteromonas atlantica CECT 579", "test": "Marine bacteria growth inhibition (broth microdilution, OD625)", "conditions": "growth inhibition, 24 h, 30 °C, three replicates; read-out: IC50 P. atlantica", "method": "as §1, §4"}, "Cobetia marina CECT 4278": {"test_system": "Cobetia marina CECT 4278", "test": "Marine bacteria growth inhibition (broth microdilution, OD625)", "conditions": "growth inhibition, 24 h, 30 °C, three replicates; read-out: IC50 C. marina", "method": "as §1, §4"}, "Fusarium sp.": {"test_system": "Fusarium sp.", "test": "Marine-derived fungi growth inhibition (OD405)", "conditions": "5 days, 26 °C", "method": "All the biological assays were run by triplicate.\n(§5) Three strains of marine-derived fungi were kindly provided by Dr. Á. Trigos (University of Veracruz, Mexico). The strains were isolated from reef organisms collected from the Veracruz Reef System and identified as Aspergillus sp., Fusarium sp. and Alternaria sp..\n(§6) Fungal strains were cultured in Potato-Dextrose Agar (PDA) supplemented with filtered seawater (FSW) (50% v/v) at 26 °C for 5 days prior to experiments. […] Briefly, fungal inocula were prepared by addition of 5 ml of sterile saline solution to the cultures. Gently swabbing released conidia. […] The plates were incubated for 5 days at 26 °C. The calculation of the half-maximal inhibitory concentrations (IC50) was performed using OD405 as endpoint."}, "Alternaria sp.": {"test_system": "Alternaria sp.", "test": "Marine-derived fungi growth inhibition (OD405)", "conditions": "growth inhibition, 5 days, 26 °C; read-out: IC50 Alternaria sp.", "method": "as §1, §5, §6"}, "Aspergillus sp.": {"test_system": "Aspergillus sp.", "test": "Marine-derived fungi growth inhibition (OD405)", "conditions": "growth inhibition, 5 days, 26 °C; read-out: IC50 Aspergillus sp.", "method": "as §1, §5, §6"}}}
{"substance": "bis-(tris-n-butyltin)oxide [TBTO, reference compound]", "values": [{"measurement": "MIC G. oxysperma (lowest concentration inhibiting spore germination)", "setting": "[1]", "result": 5, "unit": "µM"}, {"measurement": "IC50", "setting": "Cylindrotheca sp.", "result": 0.4, "unit": "µM"}, {"measurement": "IC50", "setting": "Nitzschia sp.", "result": 2.8, "unit": "µM"}, {"measurement": "IC50", "setting": "[2]", "result": 1.7, "unit": "µM"}, {"measurement": "IC50", "setting": "[3]", "result": 6.3, "unit": "µM"}, {"measurement": "IC50", "setting": "Amphora sp.", "result": 5.7, "unit": "µM"}, {"measurement": "IC50", "setting": "[4]", "result": 6.4, "unit": "µM"}, {"measurement": "IC50", "setting": "[5]", "result": 27.5, "unit": "µM"}, {"measurement": "IC50", "setting": "[6]", "result": 38.6, "unit": "µM"}, {"measurement": "IC50", "setting": "[7]", "result": 0.5, "unit": "µM"}, {"measurement": "IC50", "setting": "[8]", "result": 46.6, "unit": "µM"}, {"measurement": "IC50", "setting": "Cobetia marina CECT 4278", "result": 34.2, "unit": "µM"}, {"measurement": "IC50", "setting": "Fusarium sp.", "result": 6.7, "unit": "µM"}, {"measurement": "IC50", "setting": "Alternaria sp.", "result": 0.6, "unit": "µM"}, {"measurement": "IC50", "setting": "Aspergillus sp.", "result": 3, "unit": "µM"}]}
